#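 Cultured in 96-well plates, cells were exposed to test compound for 48 hours across five concentrations. GI50 marks 50% less growth. TGI is the concentration that stops growth completely.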
# How the values were obtained:
# Experiment in all cases: inhibition of tumour cell growth, NCI panel, 48 h
# SF-295 CNS = test system: SF-295 CNS
# MCF7 breast = test system: MCF7 breast
# SF-268 CNS = test system: SF-268 CNS
# SK-MEL-5 melanoma = test system: SK-MEL-5 melanoma
# UO-31 renal = test system: UO-31 renal
# OVCAR-8 ovarian = test system: OVCAR-8 ovarian
# ACHN renal = test system: ACHN renal
# NCI-H226 lung = test system: NCI-H226 lung
# LOX IMVI melanoma = test system: LOX IMVI melanoma
# KM12 colon = test system: KM12 colon
# SR leukemia = test system: SR leukemia
# HCC-2998 colon = test system: HCC-2998 colon
# TK-10 renal = test system: TK-10 renal
# RPMI-8226 leukemia = test system: RPMI-8226 leukemia
# CAKI-1 renal = test system: CAKI-1 renal
# SN12C renal = test system: SN12C renal
# M14 melanoma = test system: M14 melanoma
# UACC-62 melanoma = test system: UACC-62 melanoma
# SK-MEL-28 melanoma = test system: SK-MEL-28 melanoma
# HCT-15 colon = test system: HCT-15 colon
# U251 CNS = test system: U251 CNS
# HL-60(TB) leukemia = test system: HL-60(TB) leukemia
# CCRF-CEM leukemia = test system: CCRF-CEM leukemia
# OVCAR-4 ovarian = test system: OVCAR-4 ovarian
# MOLT-4 leukemia = test system: MOLT-4 leukemia
# SNB-75 CNS = test system: SNB-75 CNS
# OVCAR-5 ovarian = test system: OVCAR-5 ovarian
# A549 NSCLC = test system: A549 NSCLC
# HOP-62 NSCLC = test system: HOP-62 NSCLC
# NCI-H23 lung = test system: NCI-H23 lung
# NCI-H522 lung = test system: NCI-H522 lung
# SK-OV-3 ovarian = test system: SK-OV-3 ovarian
# SNB-19 CNS = test system: SNB-19 CNS
# MDA-MB-231 breast = test system: MDA-MB-231 breast
# HT29 colon = test system: HT29 colon
# 786-0 renal = test system: 786-0 renal
# PC-3 prostate = test system: PC-3 prostate
# SW-620 colon = test system: SW-620 colon
# IGROV1 ovarian = test system: IGROV1 ovarian
# T-47D breast = test system: T-47D breast
# MDA-MB-435 = test system: MDA-MB-435
# EKVX NSCLC = test system: EKVX NSCLC
# HOP-92 NSCLC = test system: HOP-92 NSCLC
# COLO 205 colon = test system: COLO 205 colon
# NCI/ADR-RES ovarian = test system: NCI/ADR-RES ovarian
# SK-MEL-2 melanoma = test system: SK-MEL-2 melanoma
# A498 renal = test system: A498 renal
# NCI-H460 lung = test system: NCI-H460 lung
# MALME-3M melanoma = test system: MALME-3M melanoma
# K-562 leukemia = test system: K-562 leukemia
# HS 578T breast = test system: HS 578T breast
# DU-145 prostate = test system: DU-145 prostate
# RXF 393 renal = test system: RXF 393 renal
# UACC-257 melanoma = test system: UACC-257 melanoma
# BT-549 breast = test system: BT-549 breast
# SF-539 CNS = test system: SF-539 CNS
smiles,measurement,setting,value
Nc1ccccc1NC(=O)c1ccc(NC(=O)C/C=C/c2cccnc2)cn1,GI50,SF-295 CNS,1.4 µM
same,TGI,SF-295 CNS,8.28 µM
same,GI50,MCF7 breast,0.806 µM
same,TGI,MCF7 breast,> 13.5 µM
same,GI50,SF-268 CNS,1.3 µM
same,TGI,SF-268 CNS,> 40 µM
same,GI50,SK-MEL-5 melanoma,0.958 µM
same,TGI,SK-MEL-5 melanoma,2.37 µM
same,GI50,UO-31 renal,0.702 µM
same,TGI,UO-31 renal,16.6 µM
same,GI50,OVCAR-8 ovarian,0.0839 µM
same,TGI,OVCAR-8 ovarian,> 50 µM
same,GI50,ACHN renal,1.52 µM
same,TGI,ACHN renal,> 50 µM
same,GI50,NCI-H226 lung,1.08 µM
same,TGI,NCI-H226 lung,19.6 µM
same,GI50,LOX IMVI melanoma,0.286 µM
same,TGI,LOX IMVI melanoma,3.95 µM
same,GI50,KM12 colon,1.43 µM
same,TGI,KM12 colon,> 20.5 µM
same,GI50,SR leukemia,0.435 µM
same,TGI,SR leukemia,> 50 µM
same,GI50,HCC-2998 colon,0.801 µM
same,TGI,HCC-2998 colon,4.26 µM
same,GI50,TK-10 renal,0.0583 µM
same,TGI,TK-10 renal,1.8 µM
same,GI50,RPMI-8226 leukemia,0.336 µM
same,TGI,RPMI-8226 leukemia,> 10.2 µM
same,GI50,CAKI-1 renal,1.68 µM
same,TGI,CAKI-1 renal,13 µM
same,GI50,SN12C renal,0.329 µM
same,TGI,SN12C renal,> 50 µM
same,GI50,M14 melanoma,0.704 µM
same,TGI,M14 melanoma,11.4 µM
same,GI50,UACC-62 melanoma,0.745 µM
same,TGI,UACC-62 melanoma,3.6 µM
same,GI50,SK-MEL-28 melanoma,0.866 µM
same,TGI,SK-MEL-28 melanoma,2.65 µM
same,GI50,HCT-15 colon,0.523 µM
same,TGI,HCT-15 colon,> 50 µM
same,GI50,U251 CNS,0.732 µM
same,TGI,U251 CNS,> 23.6 µM
same,GI50,HL-60(TB) leukemia,0.284 µM
same,TGI,HL-60(TB) leukemia,> 29.4 µM
same,GI50,CCRF-CEM leukemia,0.216 µM
same,TGI,CCRF-CEM leukemia,> 50 µM
same,GI50,OVCAR-4 ovarian,1.99 µM
same,TGI,OVCAR-4 ovarian,> 50 µM
same,GI50,MOLT-4 leukemia,0.724 µM
same,TGI,MOLT-4 leukemia,> 50 µM
same,GI50,SNB-75 CNS,0.674 µM
same,TGI,SNB-75 CNS,> 47.6 µM
same,GI50,OVCAR-5 ovarian,0.509 µM
same,TGI,OVCAR-5 ovarian,> 50 µM
same,GI50,A549 NSCLC,2.04 µM
same,TGI,A549 NSCLC,> 50 µM
same,GI50,HOP-62 NSCLC,1.11 µM
same,TGI,HOP-62 NSCLC,> 24.9 µM
same,GI50,NCI-H23 lung,1.45 µM
same,TGI,NCI-H23 lung,> 24.9 µM
same,GI50,NCI-H522 lung,0.334 µM
same,TGI,NCI-H522 lung,3.37 µM
same,GI50,SK-OV-3 ovarian,1.67 µM
same,TGI,SK-OV-3 ovarian,> 27.4 µM
same,GI50,SNB-19 CNS,1.72 µM
same,TGI,SNB-19 CNS,> 50 µM
same,GI50,MDA-MB-231 breast,3.35 µM
same,TGI,MDA-MB-231 breast,> 50 µM
same,GI50,HT29 colon,0.531 µM
same,TGI,HT29 colon,> 33.9 µM
same,GI50,786-0 renal,1.52 µM
same,TGI,786-0 renal,8.17 µM
same,GI50,PC-3 prostate,0.806 µM
same,TGI,PC-3 prostate,> 50 µM
same,GI50,SW-620 colon,0.188 µM
same,TGI,SW-620 colon,> 14.8 µM
same,GI50,IGROV1 ovarian,0.601 µM
same,TGI,IGROV1 ovarian,> 50 µM
same,GI50,T-47D breast,0.279 µM
same,TGI,T-47D breast,> 13.7 µM
same,GI50,MDA-MB-435,1.1 µM
same,TGI,MDA-MB-435,> 16 µM
same,GI50,EKVX NSCLC,2.38 µM
same,TGI,EKVX NSCLC,> 50 µM
same,GI50,HOP-92 NSCLC,0.0953 µM
same,TGI,HOP-92 NSCLC,1.26 µM
same,GI50,COLO 205 colon,0.445 µM
same,TGI,COLO 205 colon,2.39 µM
same,GI50,NCI/ADR-RES ovarian,1.16 µM
same,TGI,NCI/ADR-RES ovarian,> 50 µM
same,GI50,SK-MEL-2 melanoma,0.816 µM
same,TGI,SK-MEL-2 melanoma,5.09 µM
same,GI50,A498 renal,0.347 µM
same,TGI,A498 renal,1.62 µM
same,GI50,NCI-H460 lung,0.745 µM
same,TGI,NCI-H460 lung,> 37.4 µM
same,GI50,MALME-3M melanoma,0.19 µM
same,GI50,K-562 leukemia,0.213 µM
same,TGI,K-562 leukemia,> 50 µM
same,GI50,HS 578T breast,0.826 µM
same,TGI,HS 578T breast,37.1 µM
same,GI50,DU-145 prostate,0.544 µM
same,TGI,DU-145 prostate,2.06 µM
same,GI50,RXF 393 renal,0.864 µM
same,TGI,RXF 393 renal,5.9 µM
same,GI50,UACC-257 melanoma,0.798 µM
same,TGI,UACC-257 melanoma,> 13.3 µM
same,GI50,BT-549 breast,0.777 µM
same,TGI,BT-549 breast,3.73 µM
same,GI50,SF-539 CNS,0.148 µM
same,TGI,SF-539 CNS,3.07 µM
